Assay results taken from PMC10443802, “Targeting a xenobiotic transporter to ameliorate vincristine-induced sensory neuropathy” (JCI Insight, 2023).
“And” between values parts separate entries of the source, which are not always exact repeats. Identical values can stand only once.

How the values were obtained:
[1] = target: T1, hOATP1B1 (Homo sapiens, UniProt Q9Y6L6); experiment: Inhibition of vincristine uptake in HEK293 cells overexpressing hOATP1B1; details: inhibitor 15 min pre-treatment
T1 sequence (Q9Y6L6 1-691): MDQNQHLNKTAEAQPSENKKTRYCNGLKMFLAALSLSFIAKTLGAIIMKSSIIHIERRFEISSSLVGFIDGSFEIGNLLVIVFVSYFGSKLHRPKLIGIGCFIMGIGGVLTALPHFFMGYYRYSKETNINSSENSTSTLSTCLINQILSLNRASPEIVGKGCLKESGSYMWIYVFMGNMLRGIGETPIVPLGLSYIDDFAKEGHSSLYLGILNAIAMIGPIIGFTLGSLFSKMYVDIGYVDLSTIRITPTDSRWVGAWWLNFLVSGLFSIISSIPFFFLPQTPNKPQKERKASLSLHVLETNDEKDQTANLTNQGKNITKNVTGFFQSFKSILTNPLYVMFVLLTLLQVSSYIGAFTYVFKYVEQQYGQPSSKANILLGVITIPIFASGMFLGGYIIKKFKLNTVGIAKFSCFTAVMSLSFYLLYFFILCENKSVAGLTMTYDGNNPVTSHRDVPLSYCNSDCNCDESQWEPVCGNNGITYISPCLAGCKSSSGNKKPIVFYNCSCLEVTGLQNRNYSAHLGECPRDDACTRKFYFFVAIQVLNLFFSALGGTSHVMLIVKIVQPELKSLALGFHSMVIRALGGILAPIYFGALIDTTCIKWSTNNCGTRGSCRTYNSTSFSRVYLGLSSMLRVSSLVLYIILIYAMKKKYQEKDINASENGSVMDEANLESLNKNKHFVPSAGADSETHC

[2] = conventional chronic regimen; cited from earlier work
[3] = target: T2, mOATP1B2 (Mus musculus, UniProt Q9JJL3); experiment: Vincristine uptake, HEK293 cells overexpressing mOATP1B2; assay type: in vitro ADME
T2 sequence (Q9JJL3 1-689): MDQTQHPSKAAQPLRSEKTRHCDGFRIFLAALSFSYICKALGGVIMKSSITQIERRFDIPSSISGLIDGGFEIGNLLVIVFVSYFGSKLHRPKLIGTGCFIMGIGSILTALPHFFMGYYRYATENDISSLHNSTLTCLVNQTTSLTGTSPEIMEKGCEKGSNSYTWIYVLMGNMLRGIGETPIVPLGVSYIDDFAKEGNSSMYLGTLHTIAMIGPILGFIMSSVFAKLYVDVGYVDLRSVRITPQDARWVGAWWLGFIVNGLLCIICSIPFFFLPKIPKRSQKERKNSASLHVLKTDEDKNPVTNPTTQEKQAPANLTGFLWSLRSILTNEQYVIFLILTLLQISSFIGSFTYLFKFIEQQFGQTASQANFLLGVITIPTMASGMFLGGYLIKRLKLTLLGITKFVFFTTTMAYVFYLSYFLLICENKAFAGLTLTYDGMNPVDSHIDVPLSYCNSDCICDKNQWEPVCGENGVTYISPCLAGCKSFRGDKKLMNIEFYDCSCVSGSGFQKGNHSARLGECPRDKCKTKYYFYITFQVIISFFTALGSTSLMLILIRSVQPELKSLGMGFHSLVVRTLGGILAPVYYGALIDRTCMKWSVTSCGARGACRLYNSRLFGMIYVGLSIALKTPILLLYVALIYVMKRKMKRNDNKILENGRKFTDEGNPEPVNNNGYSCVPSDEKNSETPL
Description: Relative uptake is expressed as percentage change compared with empty vector controls (n = 4–14 per group). […] Human OATP1B1 and OATP1B3 transporter–overexpressed cells were used as positive controls; empty vector controls were used as the negative control. LD, 100 bp ladder. […] Mechanical allodynia (C), thermal hyperalgesia (D), and sciatic nerve maximal action potential amplitudes (E) are expressed as percentage change relative to baseline values (n = 6–8 per group). Statistical analysis was performed using a 2-way ANOVA with Bonferroni’s post hoc test. **P < 0.01, ***P < 0.001, ****P < 0.0001, compared with baseline values. […] Data are shown as mean ± SEM.
Axioskop WideField Light Microscope, as described previously (10). Representative images were captured with a QIClick Digital CCD color camera.
The histograms of g-ratio (axonal diameter/whole fiber diameter as a measure of myelination degree in each fiber) distribution were generated. An observer blinded to the group compositions performed all the morphometric determinations. […]
After incubation, transport was halted by aspirating radiolabeled drug, and rinsing the cells three times with ice-cold 1X PBS. Total radioactivity originating from the substrates was measured by lysing the cells with 1N NaOH, neutralized with 2N HCL, and measuring total radioactivity by liquid scintillation counting using an LS 6500 Counter (Beckman). […]

| SMILES | Vincristine uptake (% of vehicle) [1] | Median time from start of therapy to onset of QT events [2] [months] | Range of time from start of therapy to onset of QT events [2] | Vincristine uptake (% of vector control) [3] |
| --- | --- | --- | --- | --- |
| Cc1cn(-c2cc(NC(=O)c3ccc(C)c(Nc4nccc(-c5cccnc5)n4)c3)cc(C(F)(F)F)c2)cn1 [Nilotinib, nilotinib] | 101.303 % of vehicle and 90.7094 % of vehicle and 62.8074 % of vehicle and 106.906 % of vehicle and 107.581 % of vehicle and 108.402 % of vehicle | > 14 | 2–68 months |  |
| CC[C@]1(O)C[C@H]2CN(CCc3c([nH]c4ccccc34)[C@@](C(=O)OC)(c3cc4c(cc3OC)N(C=O)[C@H]3[C@@](O)(C(=O)OC)[C@H](OC(C)=O)[C@]5(CC)C=CCN6CC[C@]43[C@@H]65)C2)C1 [Vincristine, vincristine] |  |  |  | 209.00 % of vector control and 219.00 % of vector control and 238.00 % of vector control and 218.00 % of vector control and 216.00 % of vector control and 220.00 % of vector control |
